Source: PubChem BioAssay (NCI)
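Compound exposure: 48 hours, 5 concentrations, 96-well plates. TGI denotes the concentration required for complete inhibition of growth.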

Columns and labels:
Assay in all cases: inhibition of tumour cell growth, NCI panel, 48 h
DU-145 prostate = test system: DU-145 prostate
HT29 colon = test system: HT29 colon
SR leukemia = test system: SR leukemia
OVCAR-4 ovarian = test system: OVCAR-4 ovarian
HL-60(TB) leukemia = test system: HL-60(TB) leukemia
MOLT-4 leukemia = test system: MOLT-4 leukemia
ACHN renal = test system: ACHN renal
SF-539 CNS = test system: SF-539 CNS
SK-MEL-28 melanoma = test system: SK-MEL-28 melanoma
OVCAR-8 ovarian = test system: OVCAR-8 ovarian
IGROV1 ovarian = test system: IGROV1 ovarian
UACC-62 melanoma = test system: UACC-62 melanoma
A498 renal = test system: A498 renal
MALME-3M melanoma = test system: MALME-3M melanoma
UO-31 renal = test system: UO-31 renal
EKVX NSCLC = test system: EKVX NSCLC
HCT-116 colon = test system: HCT-116 colon
SN12C renal = test system: SN12C renal
RXF 393 renal = test system: RXF 393 renal
SF-268 CNS = test system: SF-268 CNS
NCI-H522 lung = test system: NCI-H522 lung
SNB-75 CNS = test system: SNB-75 CNS
CCRF-CEM leukemia = test system: CCRF-CEM leukemia
HOP-62 NSCLC = test system: HOP-62 NSCLC
SK-MEL-5 melanoma = test system: SK-MEL-5 melanoma
K-562 leukemia = test system: K-562 leukemia
MDA-MB-435 = test system: MDA-MB-435
OVCAR-3 ovarian = test system: OVCAR-3 ovarian
NCI-H460 lung = test system: NCI-H460 lung
MDA-MB-231 breast = test system: MDA-MB-231 breast
COLO 205 colon = test system: COLO 205 colon
T-47D breast = test system: T-47D breast
HCC-2998 colon = test system: HCC-2998 colon
OVCAR-5 ovarian = test system: OVCAR-5 ovarian
NCI-H226 lung = test system: NCI-H226 lung
786-0 renal = test system: 786-0 renal
U251 CNS = test system: U251 CNS
SW-620 colon = test system: SW-620 colon
SNB-19 CNS = test system: SNB-19 CNS
CAKI-1 renal = test system: CAKI-1 renal
A549 NSCLC = test system: A549 NSCLC
HS 578T breast = test system: HS 578T breast
HOP-92 NSCLC = test system: HOP-92 NSCLC
BT-549 breast = test system: BT-549 breast
SF-295 CNS = test system: SF-295 CNS
M14 melanoma = test system: M14 melanoma
MDA-N = test system: MDA-N
SK-OV-3 ovarian = test system: SK-OV-3 ovarian
KM12 colon = test system: KM12 colon
PC-3 prostate = test system: PC-3 prostate
NCI-H23 lung = test system: NCI-H23 lung
UACC-257 melanoma = test system: UACC-257 melanoma
MCF7 breast = test system: MCF7 breast
TK-10 renal = test system: TK-10 renal
SK-MEL-2 melanoma = test system: SK-MEL-2 melanoma
LOX IMVI melanoma = test system: LOX IMVI melanoma
NCI/ADR-RES ovarian = test system: NCI/ADR-RES ovarian
RPMI-8226 leukemia = test system: RPMI-8226 leukemia
HCT-15 colon = test system: HCT-15 colon

Question: `C[C@]12CC[C@H](O)CC1=CC[C@@H]1C2CC[C@]2(C)c3n[nH]nc3CC12` (stereo partly drawn) was tested. Which TGI (DU-145 prostate) did it give?
Answer: > 100 µM

Question: What about the TGI (HT29 colon) of the same compound?
Answer: > 100 µM

Question: And the TGI (SR leukemia)?
Answer: 96.4 µM

Question: And the TGI (OVCAR-4 ovarian)?
Answer: > 100 µM

Question: What about the TGI (HL-60(TB) leukemia) of the same compound?
Answer: > 100 µM

Question: And the TGI (MOLT-4 leukemia)?
Answer: > 100 µM

Question: And the TGI (ACHN renal)?
Answer: > 100 µM

Question: What about the TGI (SF-539 CNS) of the same compound?
Answer: > 100 µM

Question: And the TGI (SK-MEL-28 melanoma)?
Answer: > 100 µM

Question: What about the TGI (OVCAR-8 ovarian) of the same compound?
Answer: > 100 µM

Question: What about the TGI (IGROV1 ovarian) of the same compound?
Answer: > 100 µM

Question: What about the TGI (UACC-62 melanoma) of the same compound?
Answer: > 100 µM

Question: And the TGI (A498 renal)?
Answer: > 100 µM

Question: And the TGI (MALME-3M melanoma)?
Answer: > 100 µM

Question: What about the TGI (UO-31 renal) of the same compound?
Answer: > 100 µM

Question: And the TGI (EKVX NSCLC)?
Answer: > 100 µM

Question: What about the TGI (HCT-116 colon) of the same compound?
Answer: > 100 µM

Question: What about the TGI (SN12C renal) of the same compound?
Answer: > 100 µM

Question: And the TGI (RXF 393 renal)?
Answer: > 100 µM

Question: And the TGI (SF-268 CNS)?
Answer: > 100 µM

Question: And the TGI (NCI-H522 lung)?
Answer: > 100 µM

Question: And the TGI (SNB-75 CNS)?
Answer: > 100 µM

Question: And the TGI (CCRF-CEM leukemia)?
Answer: > 100 µM

Question: And the TGI (HOP-62 NSCLC)?
Answer: > 100 µM

Question: And the TGI (SK-MEL-5 melanoma)?
Answer: > 100 µM

Question: What about the TGI (K-562 leukemia) of the same compound?
Answer: > 100 µM

Question: What about the TGI (MDA-MB-435) of the same compound?
Answer: > 100 µM

Question: What about the TGI (OVCAR-3 ovarian) of the same compound?
Answer: > 100 µM

Question: What about the TGI (NCI-H460 lung) of the same compound?
Answer: > 100 µM

Question: And the TGI (MDA-MB-231 breast)?
Answer: > 100 µM

Question: What about the TGI (COLO 205 colon) of the same compound?
Answer: > 100 µM

Question: What about the TGI (T-47D breast) of the same compound?
Answer: > 100 µM

Question: What about the TGI (HCC-2998 colon) of the same compound?
Answer: > 100 µM

Question: What about the TGI (OVCAR-5 ovarian) of the same compound?
Answer: > 100 µM

Question: What about the TGI (NCI-H226 lung) of the same compound?
Answer: > 100 µM

Question: And the TGI (786-0 renal)?
Answer: > 100 µM

Question: And the TGI (U251 CNS)?
Answer: > 100 µM

Question: What about the TGI (SW-620 colon) of the same compound?
Answer: > 100 µM

Question: What about the TGI (SNB-19 CNS) of the same compound?
Answer: > 100 µM

Question: And the TGI (CAKI-1 renal)?
Answer: > 100 µM

Question: And the TGI (A549 NSCLC)?
Answer: > 100 µM

Question: What about the TGI (HS 578T breast) of the same compound?
Answer: > 100 µM

Question: And the TGI (HOP-92 NSCLC)?
Answer: > 100 µM

Question: What about the TGI (BT-549 breast) of the same compound?
Answer: > 100 µM

Question: And the TGI (SF-295 CNS)?
Answer: > 100 µM

Question: And the TGI (M14 melanoma)?
Answer: > 100 µM

Question: And the TGI (MDA-N)?
Answer: > 100 µM

Question: What about the TGI (SK-OV-3 ovarian) of the same compound?
Answer: > 100 µM

Question: And the TGI (KM12 colon)?
Answer: > 100 µM

Question: And the TGI (PC-3 prostate)?
Answer: > 100 µM

Question: And the TGI (NCI-H23 lung)?
Answer: > 100 µM

Question: What about the TGI (UACC-257 melanoma) of the same compound?
Answer: > 100 µM

Question: And the TGI (MCF7 breast)?
Answer: > 100 µM

Question: What about the TGI (TK-10 renal) of the same compound?
Answer: > 100 µM

Question: How did the TGI (DU-145 prostate) turn out when `Cn1c(C(O)C2(c3cccnc3)SCCCS2)cc2ccccc21` (stereo not drawn) was run?
Answer: > 100 µM

Question: And the TGI (SK-MEL-2 melanoma)?
Answer: > 100 µM

Question: And the TGI (HT29 colon)?
Answer: > 100 µM

Question: And the TGI (SR leukemia)?
Answer: > 100 µM

Question: And the TGI (LOX IMVI melanoma)?
Answer: > 100 µM

Question: And the TGI (OVCAR-4 ovarian)?
Answer: > 100 µM

Question: What about the TGI (HL-60(TB) leukemia) of the same compound?
Answer: > 100 µM

Question: What about the TGI (ACHN renal) of the same compound?
Answer: > 100 µM

Question: And the TGI (SK-MEL-28 melanoma)?
Answer: > 100 µM

Question: And the TGI (OVCAR-8 ovarian)?
Answer: > 100 µM

Question: And the TGI (IGROV1 ovarian)?
Answer: > 100 µM

Question: What about the TGI (UACC-62 melanoma) of the same compound?
Answer: > 100 µM

Question: And the TGI (A498 renal)?
Answer: > 100 µM

Question: And the TGI (MALME-3M melanoma)?
Answer: > 100 µM

Question: And the TGI (UO-31 renal)?
Answer: > 100 µM

Question: What about the TGI (NCI/ADR-RES ovarian) of the same compound?
Answer: > 100 µM

Question: And the TGI (EKVX NSCLC)?
Answer: > 100 µM

Question: What about the TGI (HCT-116 colon) of the same compound?
Answer: > 100 µM

Question: What about the TGI (RPMI-8226 leukemia) of the same compound?
Answer: > 100 µM

Question: And the TGI (SN12C renal)?
Answer: > 100 µM

Question: And the TGI (SF-268 CNS)?
Answer: > 100 µM

Question: And the TGI (SNB-75 CNS)?
Answer: > 100 µM

Question: And the TGI (CCRF-CEM leukemia)?
Answer: > 100 µM

Question: What about the TGI (HOP-62 NSCLC) of the same compound?
Answer: > 100 µM

Question: What about the TGI (SK-MEL-5 melanoma) of the same compound?
Answer: > 100 µM

Question: And the TGI (K-562 leukemia)?
Answer: > 100 µM

Question: And the TGI (MDA-MB-435)?
Answer: > 100 µM

Question: What about the TGI (OVCAR-3 ovarian) of the same compound?
Answer: > 100 µM

Question: What about the TGI (NCI-H460 lung) of the same compound?
Answer: > 100 µM

Question: And the TGI (MDA-MB-231 breast)?
Answer: > 100 µM

Question: And the TGI (COLO 205 colon)?
Answer: > 100 µM

Question: What about the TGI (T-47D breast) of the same compound?
Answer: > 100 µM

Question: And the TGI (HCC-2998 colon)?
Answer: > 100 µM

Question: And the TGI (HCT-15 colon)?
Answer: > 100 µM

Question: What about the TGI (OVCAR-5 ovarian) of the same compound?
Answer: > 100 µM

Question: What about the TGI (NCI-H226 lung) of the same compound?
Answer: > 100 µM

Question: What about the TGI (786-0 renal) of the same compound?
Answer: > 100 µM

Question: What about the TGI (U251 CNS) of the same compound?
Answer: > 100 µM

Question: And the TGI (SW-620 colon)?
Answer: > 100 µM

Question: And the TGI (SNB-19 CNS)?
Answer: > 100 µM

Question: What about the TGI (CAKI-1 renal) of the same compound?
Answer: > 100 µM

Question: And the TGI (A549 NSCLC)?
Answer: > 100 µM

Question: And the TGI (HOP-92 NSCLC)?
Answer: > 100 µM

Question: And the TGI (BT-549 breast)?
Answer: > 100 µM

Question: What about the TGI (SF-295 CNS) of the same compound?
Answer: > 100 µM

Question: And the TGI (M14 melanoma)?
Answer: > 100 µM

Question: And the TGI (MDA-N)?
Answer: > 100 µM

Question: What about the TGI (SK-OV-3 ovarian) of the same compound?
Answer: > 100 µM

Question: And the TGI (KM12 colon)?
Answer: > 100 µM

Question: What about the TGI (PC-3 prostate) of the same compound?
Answer: > 100 µM

Question: What about the TGI (NCI-H23 lung) of the same compound?
Answer: > 100 µM

Question: And the TGI (UACC-257 melanoma)?
Answer: > 100 µM

Question: And the TGI (MCF7 breast)?
Answer: > 100 µM

Question: What about the TGI (TK-10 renal) of the same compound?
Answer: > 100 µM
